Details of series [1]: method as in PMID 29065985. Conditions: cited from earlier work.
Series [2] is described as follows: Sorafenib concentration in 3-mm skin biopsies of patients (LC-MS/MS). It counts as in vivo, human. As to the method: A 3-mm skin biopsy was obtained at days 1 and 15 of the study during PK sampling days for pharmacokinetic analysis. Skin biopsies were taken from either the forearm or the shoulder region, but always from the same region at the same timepoint in an individual patient during the two consecutive PK sampling days. If patients had HFSR lesions at the hand at the first PK day, an additional skin biopsy was performed from the thenar eminence region of the hand for pathologic analysis on days 1 and 15. The biopsies were graded according to the scoring for interface dermatitis as used for graft-versus-host disease by an experienced pathologist (J.D.).

The nature of series [3]: Toxicity in patients (CTCAE version 4.0, patient diaries) per study phase. It counts as in vivo, human.
Excerpt: Toxicity was described as the incidence of toxicity per phase. This was corrected for baseline toxicity and was only taken into account in case of an increase in CTCAE grade per PK sampling day.
The nature of another series: clinical. Conditions: human, plasma, oral.
For series [4] the following is noted: at clinically relevant doses; cited from earlier work.
Where [5] appears, read: plasma, relative difference of geometric means.
Where [6] appears, read: plasma, sorafenib monotherapy (day 1).

Several values for one entry are separate records, joined by “and”; a condition that tells them apart may be missing. Equal entries are not always repeated. Where two headings read alike, the source gives them in different places.

Description for clinical: Patients were admitted to the hospital on days 1 and 15 of the study for pharmacokinetic blood sampling. […] Blood samples were processed into plasma within 30 min, by vortex mixing and centrifugation for 10 min at 2500× g at 4 °C. Plasma concentrations were determined using a validated liquid chromatography tandem mass spectrometry (LC-MS/MS) method [18], at both the laboratory of Translational Pharmacology in the Erasmus MC, Rotterdam, and the laboratory of Pharmaceutics and Pharmaceutical Chemistry, Ohio State University, OH.
The point estimates and CIs were transformed back to the original scale in order to give the point estimates for the ratio of the geometric means and the CIs. Tmax was analyzed by means of the Wilcoxon signed rank test and described with medians and interquartile ranges. Toxicity was described as the incidence of toxicity per phase. This was corrected for baseline toxicity and was only taken into account in case of an increase in CTCAE grade per PK sampling day.

What is called AUC(0-t) is exposure summed from dosing to a finite time, without extrapolation to infinity. A lower AUC(0-t) goes with low exposure. As usually defined, the Cmax is the peak of the concentration-time curve. One may read the Tmax as the time from dosing to the highest level. A word on the Kp: it is tissue or fluid exposure divided by exposure in the circulation. Turning to `CNC(=O)c1cc(Oc2ccc(NC(=O)Nc3ccc(Cl)c(C(F)(F)F)c3)cc2)ccn1` [Sorafenib, sorafenib], in series [1], the “clinical incidence of HFSR ≥ grade 3” value is given as 20%. In addition, the “difference in sorafenib plasma AUC between patients with or without liver cirrhosis” value (90% CI: −32.9% to 30.7%, P = 0.73) is recorded as −6.3%. Besides, the “difference in sorafenib plasma Ctrough between patients with or without liver cirrhosis” value (90% CI: −46.8% to 61.3%, P = 0.81) is recorded as −7.4%. Further, for the setting “human, plasma, oral”, the AUC(0-t) was 33500 ng·h/mL. For the setting “human, plasma, oral, Cmax (CV%) geomean, plasma, sorafenib monotherapy (day 1)”, this compound showed a Cmax of 4460 ng/mL. Also, for the setting “human, plasma, oral, Tmax (IQR) median, plasma, sorafenib monotherapy (day 1)”, the Tmax was 3.7 h. Under setting [5], the “RD sorafenib monotherapy vs. sorafenib + probenecid (90% CI), Cmax” value was −25.1% (−44.3% to −19.7%) and the “RD sorafenib monotherapy vs. sorafenib + probenecid (90% CI), Ctrough” value is given as −26.0% (−43.4% to −3.4%). The “Ctrough (CV%) geomean” value under setting [6] is recorded as 2125.5 (60) μg/mL. In addition, where the note is “vs sorafenib alone, decrease”, the “decrease of geometric mean plasma AUC0–12 h with concomitant probenecid” value was 27% and 26.8%; the “decrease of plasma Cmax with concomitant probenecid” value is 25.1%; the “decrease of plasma Ctrough with concomitant probenecid” value amounted to 26.0%. In series [2] (human, skin and plasma, oral), this compound had a Kp at 15 study day of 0.00147. For the same compound, the “RD sorafenib monotherapy vs. sorafenib + probenecid (90% CI), sorafenib concentration in keratinocytes” value in series [2] (skin biopsy) is −28.1% (−46.3% to −3.7%). Also, in series [2] (vs sorafenib alone, decrease), the “decrease of sorafenib concentration in skin in the presence of probenecid” value is recorded as 28.1%. Besides, in series [3] (N = 16 per phase), the “Anorexia, Grade 1–2, patients” value was determined as 4; the “Constipation, Grade 1–2, patients” value was 2; the “Diarrhea, Grade 1–2, patients” value is 1; the “Fatigue, Grade 1–2, patients” value turned out to be 2. Also, in series [3] (N = 16 per phase), the “Fever, Grade 1–2, patients” value stood at 1; the “HFSR, Grade 1–2, patients” value is on record as 3; the “Nausea, Grade 1–2, patients” value was determined as 1; the “Oral mucositis, Grade 1–2, patients” value was 1. In series [3] (N = 16 per phase), the “Pain, Grade 1–2, patients” value is 1; the “Pain, Grade 3, patients” value is given as 1; the “Rash, Grade 1–2, patients” value came to 1; the “Vomiting, Grade 1–2, patients” value was found to be 0. The “Serious adverse events (SAE)” value in series [3] (N = 16 per phase, assumed not related to study drugs) is 1. In addition, in series [3] (during sorafenib monotherapy), the “occurrence of HFSR, rash, anorexia, and fatigue” value is listed as 43%. In series [3] (whole study), the “patients in whom HFSR occurred” value is 10 of 16 patients. For the same compound, in “clinical”, the maximum concentration (Cmax) was found to be 3340 ng/mL and the time of peak concentration (Tmax) turned out to be 2.2 h. Moreover, the AUC(0-t) in the series “clinical” (500 mg) was 24500 ng·h/mL.
Turning to `CCCN(CCC)S(=O)(=O)c1ccc(C(=O)O)cc1` [Probenecid, probenecid], in series [4], the plasma concentrations achieved result is “higher than 200 µM”. In addition, in series [3] (during probenecid administration (concomitant with sorafenib)), the “occurrence of HFSR, rash, anorexia, and fatigue” value was determined as 65%.
For the compound `CNC(=O)c1cc(Oc2ccc(NC(=O)Nc3ccc(Cl)c(C(F)(F)F)c3)cc2)cc[n+]1[O-]` [Sorafenib-N-oxide, sorafenib-N-oxide], under setting [5], the “RD sorafenib monotherapy vs. sorafenib + probenecid (90% CI), AUC0–12 h” value is −36.3% (−52.8% to −14.1%); the “RD sorafenib monotherapy vs. sorafenib + probenecid (90% CI), Cmax” value is listed as −39.2% (−54.6% to −18.7%); the “RD sorafenib monotherapy vs. sorafenib + probenecid (90% CI), Ctrough” value was −35.2% (−59.7% to 4.3%). Further, under setting [6], the “Cmax (CV%) geomean” value is recorded as 467.3 (77) μg/mL and the “Ctrough (CV%) geomean” value is 271.1 (282) μg/mL. Further, under “vs sorafenib alone, decrease”, the “decrease of geometric mean plasma AUC0–12 h with concomitant probenecid” value is listed as 36.3% and the “decrease of plasma Cmax with concomitant probenecid” value stood at 39.2%.

Values taken from publication PMC7559746 (Pharmaceutics, 2020).
